Earlier results, collected in patent US20150045422A1 (priority 2005, published 2015).

What was measured:
[1] = system: Herpes Simplex Virus Type 2 (HSV2)

Molecule | PSR Potency in Human Cells (IC50) HL (HL (lymphocyte)) | PSR Potency in Human Cells (IC50) HEK (HEK (kidney)) | PSR Potency in Human Cells (IC50) HeLa (HeLa (uterine)) | PSR Potency in Human Cells (IC50) HSV2 [1] | PSR Potency in Human Cells (IC50) HEp2 (HEp2 (epidermoid)) | concentrations that did not decrease cell viability (HEp-2 cells)
CC(=O)O[C@@H]1[C@@H](O)[C@H]2O[C@@H]3C=C(C)C(=O)[C@@H](O)[C@]3(CO)[C@]1(C)[C@]21CO1 [FusX, Fusarenon-X] | 0.3 mg/L | 1 mg/L | 0.1 mg/L | 0.026 mg/L | – | –
Crotocin | 2 mg/L | 0.6 mg/L | 0.5 mg/L | – | 0.25 mg/L | –
CC(=O)OC[C@]12C[C@H](O)C(C)=C[C@H]1O[C@@H]1[C@H](O)[C@@H](OC(C)=O)[C@@]2(C)[C@]12CO2 [NEOS, neosolaniol] | 0.05 mg/L | 0.06 mg/L | 0.1 mg/L | 0.052 mg/L | – | below 200 ng/ml
CC1=C[C@H]2O[C@@H]3[C@H](O)[C@@H](O)[C@](C)([C@@]2(CO)[C@H](O)C1=O)[C@]31CO1 [NIV, Nivalenol] | 0.3 mg/L | 1 mg/L | 0.3 mg/L | 0.05 mg/L | 0.225 mg/L | –
CC1=C[C@H]2O[C@@H]3[C@H](O)C[C@](C)([C@@]2(CO)[C@H](O)C1=O)[C@]31CO1 [DON, Deoxynivalenol] | 0.5 mg/L | 3 mg/L | 1 mg/L | 0.094 mg/L | 0.25 mg/L | –
